Test results taken from the CheMixHub viscosity set.

Assay: xn = mol fraction of the nth substance listed

CCOc1ccccc1 + CCNc1ccccc1
viscosity [mPa·s], 101 kPa
Settings | 293.15 K | 298.15 K | 303.15 K | 308.15 K | 313.15 K | 318.15 K | 323.15 K
x2 = 0.0508 | 1.253 | 1.161 | 1.063 | 0.999 | 0.933 | 0.868 | 0.808
x2 = 0.1098 | 1.291 | 1.19 | 1.088 | 1.021 | 0.953 | 0.884 | 0.823
x2 = 0.1509 | 1.317 | 1.211 | 1.105 | 1.036 | 0.965 | 0.896 | 0.832
x2 = 0.2097 | 1.355 | 1.241 | 1.131 | 1.057 | 0.983 | 0.91 | 0.845
x2 = 0.2533 | 1.386 | 1.265 | 1.151 | 1.072 | 0.996 | 0.921 | 0.855
x2 = 0.3046 | 1.423 | 1.295 | 1.176 | 1.093 | 1.012 | 0.935 | 0.866
x2 = 0.3501 | 1.459 | 1.323 | 1.2 | 1.112 | 1.028 | 0.948 | 0.878
x2 = 0.4081 | 1.51 | 1.364 | 1.234 | 1.141 | 1.052 | 0.967 | 0.894
x2 = 0.4533 | 1.552 | 1.397 | 1.262 | 1.164 | 1.071 | 0.984 | 0.908
x2 = 0.5003 | 1.599 | 1.435 | 1.295 | 1.191 | 1.094 | 1.003 | 0.924
x2 = 0.5519 | 1.655 | 1.479 | 1.333 | 1.223 | 1.122 | 1.027 | 0.944
x2 = 0.6068 | 1.719 | 1.531 | 1.377 | 1.26 | 1.153 | 1.054 | 0.967
x2 = 0.6496 | 1.772 | 1.574 | 1.414 | 1.291 | 1.18 | 1.077 | 0.986
x2 = 0.7065 | 1.846 | 1.633 | 1.464 | 1.333 | 1.215 | 1.107 | 1.012
x2 = 0.7497 | 1.906 | 1.682 | 1.506 | 1.367 | 1.244 | 1.131 | 1.033
x2 = 0.7998 | 1.978 | 1.739 | 1.554 | 1.407 | 1.278 | 1.16 | 1.058
x2 = 0.8505 | 2.055 | 1.798 | 1.604 | 1.447 | 1.311 | 1.188 | 1.082
x2 = 0.9019 | 2.133 | 1.859 | 1.653 | 1.487 | 1.344 | 1.214 | 1.105
x2 = 0.9502 | 2.205 | 1.914 | 1.699 | 1.525 | 1.374 | 1.239 | 1.125

CC(=O)[C@@]12O[C@@H]1C[C@H]1[C@@H]3CCC4=CC(=O)CC[C@]4(C)[C@H]3[C@H](O)C[C@@]12C + ClC(Cl)Cl
viscosity [mPa·s]
Settings | 295.7 K | 299.65 K | 303.75 K | 307.65 K | 312.15 K | 317.15 K | 321.15 K
100 kPa, x1 = 0.00321 | 0.57 | 0.536 | 0.52 | 0.498 | 0.491 | 0.48 | 0.454
100 kPa, x1 = 0.004735 | 0.582 | 0.553 | 0.53 | 0.506 | 0.5 | 0.485 | 0.463
100 kPa, x1 = 0.006205 | 0.596 | 0.564 | 0.544 | 0.515 | 0.505 | 0.492 | 0.474
100 kPa, x1 = 0.007786 | 0.612 | 0.577 | 0.552 | 0.524 | 0.515 | 0.499 | 0.48
100 kPa, x1 = 0.009221 | 0.629 | 0.593 | 0.566 | 0.532 | 0.522 | 0.506 | 0.489
100 kPa, x1 = 0.01088 | 0.646 | 0.609 | 0.578 | 0.544 | 0.529 | 0.516 | 0.501
100 kPa, x1 = 0.01243 | 0.662 | 0.617 | 0.585 | 0.554 | 0.54 | 0.523 | 0.513
101 kPa, x1 = 0.003181 | 0.57 | 0.536 | 0.52 | 0.498 | 0.491 | 0.48 | 0.454
101 kPa, x1 = 0.00467 | 0.582 | 0.553 | 0.53 | 0.506 | 0.5 | 0.485 | 0.463
101 kPa, x1 = 0.006096 | 0.596 | 0.564 | 0.544 | 0.515 | 0.505 | 0.492 | 0.474
101 kPa, x1 = 0.007615 | 0.612 | 0.577 | 0.552 | 0.524 | 0.515 | 0.499 | 0.48
101 kPa, x1 = 0.008981 | 0.629 | 0.593 | 0.566 | 0.532 | 0.522 | 0.506 | 0.489
101 kPa, x1 = 0.01055 | 0.646 | 0.609 | 0.578 | 0.544 | 0.529 | 0.516 | 0.501
101 kPa, x1 = 0.01199 | 0.662 | 0.617 | 0.585 | 0.554 | 0.54 | 0.523 | 0.513

OCC(O)CO + O
Settings | viscosity [mPa·s]
293.15 K, 101.33 kPa, x1 = 0.021 | 1.307
293.15 K, 101.33 kPa, x1 = 0.047 | 1.952
293.15 K, 101.33 kPa, x1 = 0.077 | 2.817
293.15 K, 101.33 kPa, x1 = 0.12 | 4.618
293.15 K, 101.33 kPa, x1 = 0.16 | 7.693
298.15 K, 101 kPa, x1 = 0.0866 | 2.708
298.15 K, 101 kPa, x1 = 0.1636 | 7.353
298.15 K, 101 kPa, x1 = 0.2269 | 13.77
298.15 K, 101 kPa, x1 = 0.3134 | 27.75
298.15 K, 101 kPa, x1 = 0.439 | 59.74
298.15 K, 101 kPa, x1 = 0.5124 | 88.48
298.15 K, 101 kPa, x1 = 0.6378 | 163.1
298.15 K, 101 kPa, x1 = 0.7036 | 220.8
298.15 K, 101 kPa, x1 = 0.7684 | 297.3
298.15 K, 101 kPa, x1 = 0.8478 | 429.9
298.15 K, 101 kPa, x1 = 0.9176 | 604.8
298.15 K, 101 kPa, x1 = 0.9561 | 734.9
300.65 K, 101 kPa, x1 = 0.2636 | 10.84
300.65 K, 101 kPa, x1 = 0.2837 | 12.68
300.65 K, 101 kPa, x1 = 0.3153 | 16.23
300.65 K, 101 kPa, x1 = 0.3391 | 19.56
300.65 K, 101 kPa, x1 = 0.365 | 23.64
300.65 K, 101 kPa, x1 = 0.3785 | 26.06
300.65 K, 101 kPa, x1 = 0.4055 | 31.58
300.65 K, 101 kPa, x1 = 0.4294 | 37.49
300.65 K, 101 kPa, x1 = 0.485 | 54.01
300.65 K, 101 kPa, x1 = 0.5117 | 64.08
300.65 K, 101 kPa, x1 = 0.5472 | 79.81
300.65 K, 101 kPa, x1 = 0.5575 | 85.2
300.65 K, 101 kPa, x1 = 0.5867 | 102.7
300.65 K, 101 kPa, x1 = 0.6349 | 135.1
300.65 K, 101 kPa, x1 = 0.659 | 154.4
300.65 K, 101 kPa, x1 = 0.6978 | 191.6
300.65 K, 101 kPa, x1 = 0.7166 | 212.1
300.65 K, 101 kPa, x1 = 0.7442 | 245.6
300.65 K, 101 kPa, x1 = 0.7646 | 266.3
300.65 K, 101 kPa, x1 = 0.7947 | 309.7
300.65 K, 101 kPa, x1 = 0.8114 | 336.6
300.65 K, 101 kPa, x1 = 0.8274 | 363.6
300.65 K, 101 kPa, x1 = 0.8428 | 389.9
300.65 K, 101 kPa, x1 = 0.859 | 420.7
300.65 K, 101 kPa, x1 = 0.9082 | 519.8
300.65 K, 101 kPa, x1 = 0.9434 | 607.3
300.65 K, 101 kPa, x2 = 0.0171 | 715.5
303.15 K, 101 kPa, x1 = 0.00777 | 0.877
303.15 K, 101 kPa, x1 = 0.0152 | 0.956
303.15 K, 101 kPa, x1 = 0.02262 | 1.04
303.15 K, 101 kPa, x1 = 0.03118 | 1.147
303.15 K, 101 kPa, x1 = 0.03958 | 1.259
303.15 K, 101 kPa, x1 = 0.04604 | 1.351
303.15 K, 101 kPa, x1 = 0.05683 | 1.52
303.15 K, 101 kPa, x1 = 0.07063 | 1.751
303.15 K, 101 kPa, x1 = 0.07885 | 1.907
303.15 K, 101 kPa, x1 = 0.08828 | 2.098
303.15 K, 101 kPa, x1 = 0.1003 | 2.364
303.15 K, 101 kPa, x1 = 0.1112 | 2.625
303.15 K, 101 kPa, x1 = 0.1223 | 2.919
303.15 K, 101 kPa, x1 = 0.1369 | 3.347
303.15 K, 101 kPa, x1 = 0.154 | 3.909
303.15 K, 101 kPa, x1 = 0.171 | 4.552
303.15 K, 101 kPa, x1 = 0.1874 | 5.236
303.15 K, 101 kPa, x1 = 0.1967 | 5.679
303.15 K, 101 kPa, x1 = 0.2067 | 6.187
303.15 K, 101 kPa, x1 = 0.2178 | 6.77
303.15 K, 101 kPa, x1 = 0.225 | 7.222
303.15 K, 101 kPa, x1 = 0.2378 | 7.986
303.15 K, 101 kPa, x1 = 0.2459 | 8.548
303.15 K, 101 kPa, x1 = 0.2622 | 9.75
303.15 K, 101 kPa, x1 = 0.2636 | 9.8
303.15 K, 101 kPa, x1 = 0.2837 | 11.4
303.15 K, 101 kPa, x1 = 0.3153 | 14.53
303.15 K, 101 kPa, x1 = 0.3391 | 17.41
303.15 K, 101 kPa, x1 = 0.365 | 20.97
303.15 K, 101 kPa, x1 = 0.3785 | 23.02
303.15 K, 101 kPa, x1 = 0.4055 | 27.81
303.15 K, 101 kPa, x1 = 0.4294 | 32.86
303.15 K, 101 kPa, x1 = 0.485 | 46.9
303.15 K, 101 kPa, x1 = 0.5117 | 55.29
303.15 K, 101 kPa, x1 = 0.5472 | 68.64
303.15 K, 101 kPa, x1 = 0.5575 | 73.12
303.15 K, 101 kPa, x1 = 0.5867 | 87.65
303.15 K, 101 kPa, x1 = 0.6349 | 114.5
303.15 K, 101 kPa, x1 = 0.659 | 130.4
303.15 K, 101 kPa, x1 = 0.6978 | 161
303.15 K, 101 kPa, x1 = 0.7166 | 177.9
303.15 K, 101.33 kPa, x1 = 0.021 | 1.057
303.15 K, 101.33 kPa, x1 = 0.047 | 1.46
303.15 K, 101.33 kPa, x1 = 0.077 | 2.006
303.15 K, 101.33 kPa, x1 = 0.12 | 3.309
303.15 K, 101.33 kPa, x1 = 0.16 | 5.252
313.15 K, 101.33 kPa, x1 = 0.021 | 0.843
313.15 K, 101.33 kPa, x1 = 0.047 | 1.086
313.15 K, 101.33 kPa, x1 = 0.077 | 1.465
313.15 K, 101.33 kPa, x1 = 0.12 | 2.226
313.15 K, 101.33 kPa, x1 = 0.16 | 3.499
323.15 K, 101.33 kPa, x1 = 0.021 | 0.68
323.15 K, 101.33 kPa, x1 = 0.047 | 0.876
323.15 K, 101.33 kPa, x1 = 0.077 | 1.095
323.15 K, 101.33 kPa, x1 = 0.12 | 1.666
323.15 K, 101.33 kPa, x1 = 0.16 | 2.587
